Results published in US6471976B1, “Copper complex bactericide/fungicide and method of making same” (priority 1990, dated 2002).

System: Colletotrichum lagenarium
Test: Efficacy against Colletotrichum lagenarium on cucumber plants
Conditions: in vivo

SMILES: [Cu] [copper]
- estimated LD90 rate for the control of Colletotrichum lagenarium on cucumber plants: 200 ppm
